SMILES strings stand for the structures. Where only a bound is given, the exact number is not on record here.

For series [1], the system named is Chikungunya virus. The series can be described thus: Antiviral activity against Chikungunya virus LR2006 OPY1 infected in human MRC5 cells after 48 hrs by indirect immunofluorescence analysis. In kind it is functional, organism-based. Particulars: LR2006 OPY1, MRC5, 48 h.
The test system of series [2] is Chikungunya virus. As to the kind of experiment: Antiviral activity against Chikungunya virus KC969208 infected in African green monkey Vero cells after 48 hrs by MTT dye-based assay. The format is functional, organism-based. (Tetrazolium assays rely on reduction of a dye to a coloured formazan, in cell work by metabolically active cells.)
Series [3] in a line: Selectivity index, ratio of CC50 for African green monkey Vero cells to IC50 for Chikungunya virus KC969207. The format is toxicity. Particulars: read-out: Ratio CC50/IC50.
A short description of series [4]: Cytotoxicity against African green monkey Vero cells assessed as reduction in cell viability after 4 days by MTT assay. The format is cell-based. Conditions: chlorocebus sabaeus.
Series [5] in a line: Selectivity index, ratio of CC50 for African green monkey Vero cells to IC50 for Chikungunya virus KC969208. Particulars: read-out: Ratio CC50/IC50. The format is toxicity.
For series [6], the system named is Chikungunya virus. As to the kind of experiment: Antiviral activity against Chikungunya virus KC969207 infected in African green monkey Vero cells after 48 hrs by MTT dye-based assay. The format is functional, organism-based.
A short description of series [7]: Cytotoxicity against African green monkey Vero cells assessed as reduction in cell viability measured on day 6 to 7 post infection by MTS dye-based microscopic analysis. Conditions: chlorocebus sabaeus.
Series [8] deals with Chikungunya virus. As to the kind of experiment: Antiviral activity against Chikungunya virus infected in African green monkey Vero cells assessed as inhibition of virus-induced cytopathogenic effect measured on day 6 to 7 post infection by MTS dye-based microscopic analysis. In kind it is functional, organism-based. Conditions: 144 h.
A short description of series [9]: Selectivity index, ratio of CC50 for human Huh7.5 cells to EC50 for Chikungunya virus. The format is toxicity. Particulars: read-out: Ratio CC50/EC50.
The test system of series [10] is Chikungunya virus. As to the kind of experiment: Antiviral activity against Chikungunya virus LR2006-OPY1 infected in BHK21 cells after 48 hrs by luciferase reporter gene assay. The format is functional, organism-based. Particulars: LR2006-OPY1, BHK-21, 48 h. On the technique in general: Reporter assays use an easily measured gene product as a stand-in for the process of interest.

The nature of series [11]: Cytotoxicity against human Huh7.5 cells in presence of ATP by Celltiter-Glo assay. The format is cell-based.
The nature of series [12]: Cytotoxicity against BHK21 cells in presence of ATP by Celltiter-Glo assay. The format is cell-based, Mesocricetus auratus. Conditions: hamster, BHK-21 cells. (In ATP-based viability assays light output follows the ATP content of the culture.)
The subject of series [13] is Chikungunya virus. As to the kind of experiment: Antiviral activity against Chikungunya virus LR2006-OPY1 infected in human Huh7.5 cells after 48 hrs by luciferase reporter gene assay. In kind it is functional, organism-based. Particulars: LR2006-OPY1, Huh7.5, 48 h.
A short description of series [14]: Selectivity index, ratio of CC50 for BHK21 cells to EC50 for Chikungunya virus. In kind it is toxicity. Particulars: hamster, BHK-21 cells; read-out: Ratio CC50/EC50.
The subject of another series is Vero. The series can be described thus: Cytotoxicity against African green monkey Vero cells assessed as reduction in cell viability measured on day 5 post dose by MTS/PMS based microscopic analysis. Conditions: chlorocebus sabaeus.
Series [15] deals with Chikungunya virus. The series can be described thus: Antiviral activity against Chikungunya virus 899 infected in African green monkey Vero cells assessed as inhibition of virus-induced cytopathogenic effect measured on day 5 post infection by MTS/PMS based microscopic analysis. The format is functional, organism-based. Particulars: Chikungunya virus, 899, Vero, 120 h.
Series [16] concerns Chikungunya virus. The series can be described thus: Antiviral activity against Chikungunya virus 899 infected in African green monkey Vero cells by MTS assay. In kind it is functional, organism-based. Particulars: Chikungunya virus, 899, Vero.
The nature of series [17]: Cytotoxicity against African green monkey Vero cells assessed as reduction in cell viability after 18 hrs by […]. In kind it is cell-based. Particulars: chlorocebus sabaeus.
Series [18] in a line: Selectivity index, ratio of CC50 for African green monkey Vero cells to EC50 for Chikungunya virus 899. The format is toxicity. Conditions: read-out: Ratio CC50/EC50.
The subject of series [19] is Chikungunya virus. As to the kind of experiment: Antiviral activity against Chikungunya virus 899 infected in African green monkey Vero A cells assessed as reduction in viral infectious progeny by end-point titration assay. In kind it is functional, organism-based. Particulars: Chikungunya virus, 899, Vero.
For series [20], the system named is Chikungunya virus. As to the kind of experiment: Antiviral activity against Chikungunya virus 899 infected in African green monkey Vero A cells by real-time qRT-PCR analysis. The format is functional, organism-based. Particulars: Chikungunya virus, 899, Vero.
The nature of series [21]: Cytotoxicity against African green monkey Vero A cells assessed as reduction in cell viability measured on day 5 post infection by MTS/PMS based microscopic analysis. Conditions: chlorocebus sabaeus.
Series [22] deals with Chikungunya virus. As to the kind of experiment: Antiviral activity against Chikungunya virus 899 infected in African green monkey Vero A cells assessed as inhibition of virus-induced cytopathogenic effect measured on day 5 post infection by MTS/PMS based microscopic analysis. The format is functional, organism-based. Particulars: Chikungunya virus, 899, Vero, 120 h.

As a reminder, the IC50 is the point on the concentration scale where inhibition reaches its midpoint. In the series on Chikungunya virus [1], `CCOC(=O)c1c(CS(=O)(=O)c2ccccc2)n(C)c2cc(Br)c(O)c(CN(C)C)c12` came in with an IC50 of over 56.4 µM.
In general, CC50 refers to the concentration that lowers cell viability or growth by half. In the case of `CCCCOC(=O)c1ccccc1C(=O)O`, the IC50 with Chikungunya virus [2] was determined as 28.6 µM; in the series with Chikungunya virus [6], 2.49 µM. Moreover, the selectivity ratio in series [3] came out at 136; in series [5], 11.9. Besides, the CC50 at 96 h in series [4] was 340 µM.
The EC50 is the midpoint of the concentration-response curve. With `C=C(C)[C@@]1(O)[C@@H]2OC3(c4ccccc4)O[C@H]1[C@@H](C)[C@]1(O3)C3=CC(=C(Cl)Cl)[C@H](OC(=O)c4ccccc4)[C@@]3(O)[C@H](OC(C)=O)[C@@]3(COC(C)=O)O[C@H]3[C@@H]21`, in [7], the CC50 is 35 µM. Besides, in the series with Chikungunya virus [8], the EC50 stood at 1.5 µM.
In the series with Chikungunya virus [1], `CCOC(=O)c1c(C[S+]([O-])c2ccccc2)n(C)c2cc(Br)c(O)c(CN(C)C)c12` (stereo not drawn) came in with an IC50 of 54.5 µM.
For the molecule `CC[C@H](C)[C@H]1O[C@]2(CC[C@@H]1C)C[C@@H]1C[C@@H](C/C=C(\C)[C@@H](O[C@H]3C[C@H](OC)[C@@H](O[C@H]4C[C@H](OC)[C@@H](O)[C@H](C)O4)[C@H](C)O3)[C@@H](C)/C=C/C=C3\CO[C@]4(O)[C@H](O)C(C)=C[C@@H](C(=O)O1)[C@]34O)O2`, the selectivity ratio in series [9] was 4.1; in series [14], 62.4. Besides, the EC50 with Chikungunya virus [10] is 0.6 µM; in the series with Chikungunya virus [13] it was 1.9 µM. Further, the cytotoxic concentration (CC50) was determined as 8 µM in [11] and 37.9 µM in series [12].
As to `C=C(C)[C@@]1(Oc2ccccc2)[C@@H]2OC3(c4ccccc4)O[C@H]1[C@@H](C)[C@]1(O3)C3=CC(=C(Cl)Cl)C[C@@]3(O)C[C@@]3(Cc4ccccc4)O[C@H]3[C@@H]21`, in [7], the CC50 is 93 µM. Further, the half-maximal effective concentration (EC50) with Chikungunya virus [8] was 2.6 µM.
Take `CN(C)CC1CCn2c(cc3ccc(C4=C(c5cn(C)c6ccccc56)C(=O)NC4=O)cc32)C1` (stereo not drawn): in the series with Vero, the half-maximal cytotoxic concentration (CC50) was found to be 35 µM. Also, the EC50 with Chikungunya virus [15] is over 6 µM.
With `C=C(C)[C@@]1(Oc2ccccc2)[C@@H]2OC3(c4ccccc4)O[C@H]1[C@@H](C)[C@]1(O3)C3=CC(=C(Cl)Cl)[C@H](c4ccccc4)[C@@]3(O)C[C@@]3(C)O[C@H]3[C@@H]21`, the CC50 in series [7] was 23.1 µM. Also, the EC50 in the series on Chikungunya virus [8] stood at 3 µM.
With `CC(C)CCCC(C)CCCC(C)CCCC(C)CCO` (stereo not drawn), the IC50 came to 112 µM in the series with Chikungunya virus [2] and 1.66 µM in the series with Chikungunya virus [6]. Besides, the selectivity ratio in series [3] was 156; in series [5], 2.11. Besides, the CC50 at 96 h in series [4] was 259 µM.
Consider `CC1CCCCCCCC(C)C(=O)O[C@H]2/C(=C/Cl)C=C3[C@]45OC6(c7ccccc7)O[C@H]([C@@H]4[C@@H]4O[C@]4(CO)C[C@@]32O)[C@@](O)([C@@H](O6)[C@H]5C)C(O)(COC(=O)c2ccccc2O)C1` (stereo partly drawn), for which, in [7], the CC50 was 4.6 µM. In addition, the EC50 in the series with Chikungunya virus [8] turned out to be 1.9 µM.
The molecule `Cc1ccc2nc(SCc3cc(=O)oc4cc(OS(=O)(=O)c5ccccc5)ccc34)[nH]c(=O)c2c1` came in with an EC50 in the series on Chikungunya virus [16] of 58 µM. In addition, in series [17], the CC50 at 18 h came out at 126 µM. The selectivity ratio in [18] was determined as 2.2.
In the case of `CCCCCCCC(=O)O[C@H]1/C(=C/C(=O)OC)C[C@H]2C[C@H](CC(=O)OC)OC(=O)CCOc3ccccc3C(=O)OCC(C)(C)[C@]1(O)O2`, the EC50 with Chikungunya virus [19] is 4.5 µM; with Chikungunya virus [20] it was 4.6 µM; with Chikungunya virus [22] it was 8 µM. In addition, the CC50 at 5 days in [21] is over 50 µM.
Regarding `CCCCCCCCCCCCCCCCCOC(=O)c1ccccc1C(=O)O`, in the series with Chikungunya virus [2], the midpoint of inhibition, the IC50, lay at 76.5 µM. The selectivity ratio in [5] was 4.66.
Take `CCCCCCCC(=O)O[C@H]1/C(=C/C(=O)OC)C[C@H]2C[C@H](COC)OC(=O)CCOc3ccccc3C(=O)OCC(C)(C)[C@]1(O)O2`: the concentration giving a half-maximal response (EC50) in the series on Chikungunya virus [19] was determined as 4.1 µM; in the series on Chikungunya virus [20], 6 µM; in the series on Chikungunya virus [22] it was 7.5 µM. In series [21], the CC50 at 5 days was over 50 µM.
In the case of `CC1CCCCCCCC(C)C(=O)O[C@H]2/C(=C/Cl)C=C3[C@]45OC6(c7ccccc7)O[C@H]([C@@H]4[C@@H]4O[C@]4(CO)C[C@@]32O)[C@@](O)([C@@H](O6)[C@H]5C)C(O)(COC(=O)c2ccccc2)C1` (stereo partly drawn), the CC50 in series [7] worked out at 10.5 µM. Also, the half-maximal effective concentration (EC50) with Chikungunya virus [8] was determined as 3.9 µM.
`O=c1cc(CSc2nc3ccccc3c(=O)[nH]2)c2ccc(OS(=O)(=O)c3ccccc3[N+](=O)[O-])cc2o1` gave an EC50 in the series on Chikungunya virus [16] of 17.2 µM. Besides, in [17], the CC50 at 18 h was determined as 144 µM. Moreover, in series [18], the selectivity ratio came to 8.8.
For the molecule `CC1CCCCCCCC(C)C(=O)O[C@H]2/C(=C/Cl)C=C3[C@]45OC6(c7ccccc7)O[C@H]([C@@H]4[C@@H]4O[C@]4(CO)C[C@@]32O)[C@@](O)([C@@H](O6)[C@H]5C)C(C)(O)C1` (stereo partly drawn), the CC50 in [7] is 5.3 µM. The EC50 in the series with Chikungunya virus [8] is 2.5 µM.

For the origin of these results see ChEMBL document CHEMBL4177563, “The medicinal chemistry of Chikungunya virus” (Bioorg Med Chem, 2017).
